Data: US20250206761A1, “HALOINDOLE MACROCYCLIC COMPOUNDS FOR THE TREATMENT OF CANCER” (Hoffmann-La Roche Inc., priority 2022, published 2025)
Where two headings read alike, the source gives them in different places.

Conditions: ester bond, EDCI/HOBt/DIEA, DCM

| Compound | ring closure, yield of all isomers (from CO[C@@H](C)c1ncc(N2CCN(C(=O)OCc3ccccc3)CC2)cc1-c1c(CC(C)(C)CO)c2cc(-c3csc(C[C@H](NC(=O)OC(C)(C)C)C(=O)N4CCC[C@@H](C(=O)O)N4)n3)c(F)cc2n1CC(F)(F)F, 9.63 mM, 15.0 °C, 12.0 h) | ring closure, yield of all isomers (from CO[C@@H](C)c1ncc(N2CCOCC2)cc1-c1c(CC(C)(C)CO)c2cc(-c3csc(C[C@H](NC(=O)OC(C)(C)C)C(=O)N4CCC[C@@H](C(=O)O)N4)n3)c(F)cc2n1CC(F)(F)F, 12.0 mM, 20.0 °C, 15.0 h) |
| --- | --- | --- |
| CO[C@@H](C)c1ncc(N2CCN(C(=O)OCc3ccccc3)CC2)cc1-c1c2c3cc(c(F)cc3n1CC(F)(F)F)-c1csc(n1)C[C@H](NC(=O)OC(C)(C)C)C(=O)N1CCC[C@H](N1)C(=O)OCC(C)(C)C2 | 73.4% |  |
| CO[C@@H](C)c1ncc(N2CCOCC2)cc1-c1c2c3cc(c(F)cc3n1CC(F)(F)F)-c1csc(n1)C[C@H](NC(=O)OC(C)(C)C)C(=O)N1CCC[C@H](N1)C(=O)OCC(C)(C)C2 |  | 81.3% |
